Assay results taken from patent US20050032873A1, “3-Amino chroman and 2-amino tetralin derivatives” (Wyeth, priority 2003, published 2005).
Like-named read-outs stand apart in the source and are kept apart here. Blank lines part the entries; values can stand above or below the molecule they belong to.

What was measured:
[1] = biological target: T1, cloned human 5-HT1A receptors (Homo sapiens, UniProt P08908); assay: 35S-GTPγS binding assay, 5-HT1A function; format: biochemical; details: for EC50: agonist potency; for IC50: antagonist potency, reversal of 8-OH-DPAT, read-out: 5-HT1A Function GTPγS IC50
T1 construct: expressed in transfected cells
T1 sequence (P08908 1-422): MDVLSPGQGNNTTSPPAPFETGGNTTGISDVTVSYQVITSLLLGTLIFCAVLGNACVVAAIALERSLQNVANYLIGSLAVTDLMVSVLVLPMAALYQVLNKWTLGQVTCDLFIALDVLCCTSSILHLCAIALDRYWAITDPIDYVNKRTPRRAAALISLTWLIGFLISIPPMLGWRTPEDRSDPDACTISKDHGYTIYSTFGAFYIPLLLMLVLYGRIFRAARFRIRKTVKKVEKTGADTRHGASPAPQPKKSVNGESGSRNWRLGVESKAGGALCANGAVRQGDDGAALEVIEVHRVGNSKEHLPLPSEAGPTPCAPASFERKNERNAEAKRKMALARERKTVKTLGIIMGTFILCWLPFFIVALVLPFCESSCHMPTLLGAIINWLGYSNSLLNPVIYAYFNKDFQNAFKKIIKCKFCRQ

serotonin transporter = biological target: T2, serotonin transporter (Rattus norvegicus, UniProt P31652); assay: 5-HT transporter affinity: displacement of 3H-paroxetine from male rat cortical membranes; format: binding; details: displacement of 3H-paroxetine, male rat cortical membranes
T2 construct: displace ^3H-paroxetine from male rat cortical membranes; from tissue; host or cells: male rat cortical membranes
T2 sequence (P31652 whole entry): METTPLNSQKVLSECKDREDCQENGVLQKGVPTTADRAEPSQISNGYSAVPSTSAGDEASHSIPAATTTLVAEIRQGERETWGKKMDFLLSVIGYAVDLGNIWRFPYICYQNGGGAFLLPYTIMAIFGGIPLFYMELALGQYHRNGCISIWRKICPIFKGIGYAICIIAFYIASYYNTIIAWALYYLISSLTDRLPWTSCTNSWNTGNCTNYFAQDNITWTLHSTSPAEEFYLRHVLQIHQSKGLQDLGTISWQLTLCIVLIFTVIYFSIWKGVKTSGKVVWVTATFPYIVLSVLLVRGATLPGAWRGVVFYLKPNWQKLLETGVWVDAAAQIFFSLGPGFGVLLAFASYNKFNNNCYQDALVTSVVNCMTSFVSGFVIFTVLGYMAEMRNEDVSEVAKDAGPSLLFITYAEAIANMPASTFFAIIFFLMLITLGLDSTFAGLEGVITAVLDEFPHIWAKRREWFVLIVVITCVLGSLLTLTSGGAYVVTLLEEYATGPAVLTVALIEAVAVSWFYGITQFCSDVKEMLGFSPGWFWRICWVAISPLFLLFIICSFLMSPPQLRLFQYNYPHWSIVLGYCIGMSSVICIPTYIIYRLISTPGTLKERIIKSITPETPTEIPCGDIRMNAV

5-HT1A receptor [2] = biological target: T3, 5-HT1A receptor (Homo sapiens, UniProt P08908); assay: 5-HT1A receptor affinity: displacement of [3H] 8-OH-DPAT; format: binding; design: expressed in transfected cells; details: for inhibition at 1 µM: read-out: 5-HT1A Receptor Affinity, % @ 1 μM; for Ki: displacement of [3H] 8-OH-DPAT, CHO cells stably transfected with human 5-HT1A receptors, read-out: 5-HT1A Receptor Affinity Ki
T3 sequence (P08908 1-422): T1 sequence (P08908 1-422)

5-HT1A receptor [3] = biological target: T3, 5-HT1A receptor; assay: cAMP accumulation assay, 5-HT1A function; format: cell-based; details: for Emax / 5-HT1A Function cAMP (Emax): in brackets after EC50 or IC50; for Emax: read-out: 5-HT1A Function cAMP (Emax); for EC50: cells marked EC50 (agonist)
[4] = maximum stimulatory effect, in brackets after EC50, read-out: 5-HT1A Function GTPγS (Emax)
[5] = 5-HT Transporter Affinity Ki (nM)
[6] = read-out: 5-HT Transporter Affinity Ki
[7] = maximum inhibitory effect, in brackets after IC50
[8] = maximum inhibitory effect, in brackets after IC50, read-out: 5-HT1A Function GTPγS (Imax)

SMILES: COc1cccc2c1CC(N[C@H]1CC[C@@H](c3c[nH]c4ccc(C#N)cc43)CC1)CO2 (relative stereo) [Compound 180a, 3-[(1,4-cis)-4-(5-Methoxy-chroman-3-ylamino)-cyclohexyl]-1H-indole-5-carbonitrile]
EC50 [1]: 4230 nM
Emax [1, 4]: 100%
Ki (serotonin transporter; [5]): 13 nM
inhibition at 1 µM (5-HT1A receptor [2]): 19%

SMILES: COc1cccc2c1CC(N[C@H]1CC[C@H](c3c[nH]c4ccc(C#N)cc43)CC1)CO2 (relative stereo) [Compound 180b, 3-[(1,4-trans)-4-(5-Methoxy-chroman-3-ylamino)-cyclohexyl]-1H-indole-5-carbonitrile]
EC50 [1]: 925 nM
Emax [1, 4]: 50.5%
Ki (serotonin transporter; [5]): 2.46 nM
inhibition at 1 µM (5-HT1A receptor [2]): 20%

SMILES: NC(=O)c1ccc(F)c2c1CC(N(CCCc1c[nH]c3ccc(F)cc13)C1CCC1)CO2 (single isomer, unassigned; (+)) [Compound 4a, (+)-3-{cyclobutyl[3-(5-fluoro-1H-indol-3-yl)propyl]amino}-8-fluorochromane-5-carboxamide]
Emax (5-HT1A receptor [3]): 0%
Ki (serotonin transporter; [6]): 4.93 nM

SMILES: NC(=O)c1ccc(F)c2c1CC(N(CCCc1c[nH]c3ccc(F)cc13)CC1CC1)CO2 (single isomer, unassigned; (+)) [Compound 5b, (+)-3-{(cyclopropylmethyl)[3-(5-fluoro-1H-indol-3-yl)propyl]amino}-8-fluorochromane-5-carboxamide]
5-HT1A Function cAMP (Emax) (5-HT1A receptor [3]): 69%
5-HT1A Function GTPγS (Imax) [1, 7]: 82%
Emax [1, 4]: 18%
Ki (serotonin transporter; [6]): 3.7 nM

SMILES: NC(=O)c1ccc(F)c2c1CC(NCCCc1c[nH]c3ccc(F)cc13)CO2 (single isomer, unassigned; (-)) [Compound 1b, (−)-8-fluoro-3-{[3-(5-fluoro-1H-indol-3-yl)propyl]amino}chromane-5-carboxamide]
Ki (serotonin transporter; [6]): 76 nM
inhibition at 1 µM (5-HT1A receptor [2]): 47%

SMILES: NC(=O)c1ccc(F)c2c1CC(N(CCCc1c[nH]c3ccc(F)cc13)C1CCC1)CO2 (single isomer, unassigned; (-)) [Compound 4b, (−)-3-{cyclobutyl[3-(5-fluoro-1H-indol-3-yl)propyl]amino}-8-fluorochromane-5-carboxamide]
5-HT1A Function cAMP (Emax) (5-HT1A receptor [3]): 0%
Ki (serotonin transporter; [6]): 1.53 nM

SMILES: NC(=O)c1ccc(F)c2c1CC(N(CCCc1c[nH]c3ccc(F)cc13)CC1CC1)CO2 (single isomer, unassigned; (-)) [Compound 5a, (−)-3-{(cyclopropylmethyl)[3-(5-fluoro-1H-indol-3-yl)propyl]amino}-8-fluorochromane-5-carboxamide]
5-HT1A Function cAMP (Emax) (5-HT1A receptor [3]): 0%
Emax [1, 8]: 100%
Ki (serotonin transporter; [6]): 4.1 nM

SMILES: NC(=O)c1ccc(F)c2c1CC(N(CCCc1c[nH]c3ccc(F)cc13)C1CCC1)CO2 (centres unmarked) [Compound 4, 3-{cyclobutyl[3-(5-fluoro-1H-indol-3-yl)propyl]amino}-8-fluorochromane-5-carboxamide]
Emax (5-HT1A receptor [3]): 0%
Ki (serotonin transporter; [6]): 2.6 nM

SMILES: NC(=O)c1ccc(F)c2c1CC(N(CCCc1c[nH]c3ccc(F)cc13)CC1CC1)CO2 (centres unmarked) [Compound 5, 3-{(cyclopropylmethyl)[3-(5-fluoro-1H-indol-3-yl)propyl]amino}-8-fluorochromane-5-carboxamide]
Emax (5-HT1A receptor [3]): 0%
Emax [1, 8]: 88.2%
Emax [1, 4]: 28.4%
Ki (serotonin transporter; [6]): 3.6 nM

SMILES: COc1cccc2c1CC(N(CCCCc1c[nH]c3ccc(F)cc13)C1CCC1)CO2 (centres unmarked) [Compound 36, N-cyclobutyl-N-[4-(5-fluoro-1H-indol-3-yl)butyl]-N-(5-methoxy-3,4-dihydro-2H-chromen-3-yl)amine]
EC50 (5-HT1A receptor [3]): 12.3 nM
Emax (5-HT1A receptor [3]): 61%
IC50 [1]: 668 nM
Emax [1, 8]: 56%
Ki (5-HT1A receptor [2]): 11.7 nM

SMILES: COC(=O)c1ccc(F)c2c1CC(NCCCc1c[nH]c3ccc(F)cc13)CO2 (centres unmarked) [Compound 54, Methyl 8-fluoro-3-{[3-(5-fluoro-1H-indol-3-yl)propyl]amino}chromane-5-carboxylate]
5-HT1A Function GTPγS (Emax) ([1]; maximum stimulatory effect, in brackets after EC50): 85%

SMILES: O=C(NCc1ccccc1)c1ccc(F)c2c1CC(N(CCCc1c[nH]c3ccc(F)cc13)C1CCC1)CO2 (centres unmarked) [Compound 69, N-benzyl-3-{cyclobutyl[3-(5-fluoro-1H-indol-3-yl)propyl]amino}-8-fluorochromane-5-carboxamide]
Ki (serotonin transporter; [6]): 15.1 nM
inhibition at 1 µM (5-HT1A receptor [2]): 3%

SMILES: NC(=O)c1ccc(F)c2c1CC(N(CCCc1c[nH]c3ccc(F)cc13)Cc1ccccc1)CO2 (centres unmarked) [Compound 74, 3-{benzyl[3-(5-fluoro-1H-indol-3-yl)propyl]amino}-8-fluorochromane-5-carboxamide]
Ki (serotonin transporter; [6]): 641 nM
inhibition at 1 µM (5-HT1A receptor [2]): 20%

SMILES: CNC(=O)c1ccc(F)c2c1CC(NCCc1c[nH]c3ccc(F)cc13)CO2 (centres unmarked) [Compound 84, 8-fluoro-3-{[2-(5-fluoro-1H-indol-3-yl)ethyl]amino}-N-methylchromane-5-carboxamide]
Ki (serotonin transporter; [6]): 83 nM
inhibition at 1 µM (5-HT1A receptor [2]): 0%

SMILES: COc1ccc2[nH]cc(CCCNC3COc4c(F)ccc(C(N)=O)c4C3)c2c1 (centres unmarked) [Compound 104, 8-fluoro-3-{[3-(5-methoxy-1H-indol-3-yl)propyl]amino}chromane-5-carboxamide]
Ki (serotonin transporter; [6]): 4050 nM
Ki (5-HT1A receptor [2]): 16.7 nM

SMILES: NC(=O)c1ccc(F)c2c1CC(NCCCc1c[nH]c3c(Cl)cccc13)CO2 (centres unmarked) [Compound 109, 3-{[3-(7-chloro-1H-indol-3-yl)propyl]amino}-8-fluorochromane-5-carboxamide]
Ki (serotonin transporter; [6]): 69 nM
Ki (5-HT1A receptor [2]): 27.7 nM

SMILES: NC(=O)c1ccc(F)c2c1OCC(N(CCCc1c[nH]c3ccc(F)cc13)C1CCC1)C2 (centres unmarked) [Compound 122, 3-{cyclobutyl[3-(5-fluoro-1H-indol-3-yl)propyl]amino}-5-fluorochromane-8-carboxamide]
Ki (serotonin transporter; [6]): 71 nM
inhibition at 1 µM (5-HT1A receptor [2]): 0%

SMILES: NC(=O)c1ccc(F)c2c1OCC(N(CCCCc1c[nH]c3ccc(F)cc13)C1CCC1)C2 (centres unmarked) [Compound 126, 3-{cyclobutyl[4-(5-fluoro-1H-indol-3-yl)butyl]amino}-5-fluorochromane-8-carboxamide]
Ki (serotonin transporter; [6]): 17.1 nM
inhibition at 1 µM (5-HT1A receptor [2]): 0%

SMILES: NC(=O)c1ccc(F)c2c1OCC(N(CCCc1c[nH]c3c(F)cc(F)cc13)C1CCC1)C2 (centres unmarked) [Compound 131, 3-{cyclobutyl[3-(5,7-difluoro-1H-indol-3-yl)propyl]amino}-5-fluorochromane-8-carboxamide]
Ki (serotonin transporter; [6]): 162 nM
inhibition at 1 µM (5-HT1A receptor [2]): 49%

SMILES: NC(=O)c1ccc(F)c2c1CC(NCCCn1ccc3ccccc31)CO2 (centres unmarked) [Compound 184, 8-Fluoro-3-{[3-(1H-indol-1-yl)propyl]amino}chromane-5-carboxamide]
Ki (serotonin transporter; [6]): 611 nM
inhibition at 1 µM (5-HT1A receptor [2]): 46%

SMILES: CCCN(CCCCn1ccc2cccc(F)c21)C1COc2c(F)ccc(C(N)=O)c2C1 (centres unmarked) [Compound 190, 8-Fluoro-3-[[4-(7-fluoro-1H-indol-1-yl)butyl](propyl)amino]chromane-5-carboxamide]
EC50 (5-HT1A receptor [3]): 321 nM
Emax (5-HT1A receptor [3]): 59%
IC50 [1]: 3600 nM
Emax [1, 8]: 84%
Ki (5-HT1A receptor [2]): 16.6 nM

SMILES: NC(=O)c1ccc(F)c2c1CC(N(CCCCn1ccc3c(F)cccc31)C1CCC1)CO2 (centres unmarked) [Compound 204, 3-{Cyclobutyl[4-(4-fluoro-1H-indol-1-yl)butyl]amino}-8-fluorochromane-5-carboxamide]
Ki (serotonin transporter; [6]): 288 nM
Ki (5-HT1A receptor [2]): 17.4 nM

Other lines, results leading:

EC50 [1]: 40000 nM
Emax [1, 4]: 79.4%
Ki (serotonin transporter; [6]): 26 nM
inhibition at 1 µM (5-HT1A receptor [2]): 37%
SMILES: COc1cccc2c1CC(N[C@H]1CC[C@@H](c3c[nH]c4ccc(F)cc43)CC1)CO2 (relative stereo) [Compound 181a, cis-N-[4-(5-fluoro-1H-indol-3-yl)cyclohexyl]-5-methoxychroman-3-amine]

IC50 [1]: 6000 nM
5-HT1A Function GTPγS (Imax) [1, 7]: 13%
Ki (serotonin transporter; [6]): 152 nM
SMILES: CCCN(C(C)CCc1c[nH]c2ccc(F)cc12)C1COc2c(F)ccc(C(N)=O)c2C1 (single isomer, unassigned) [Compound 12d, 8-fluoro-3-[[3-(5-fluoro-1H-indol-3-yl)-1-methylpropyl](propyl)amino]-3,4-dihydro-2H-chromene-5-carboxamide]

Ki (serotonin transporter; [6]): 112 nM
SMILES: CCCN(C(C)CCc1c[nH]c2ccc(C#N)cc12)C1COc2c(F)ccc(C(N)=O)c2C1 (single isomer, unassigned) [Compound 13d, 3-[[3-(5-cyano-1H-indol-3-yl)-1-methylpropyl](propyl)amino]-8-fluoro-3,4-dihydro-2H-chromene-5-carboxamide]

Ki (serotonin transporter; [6]): 217 nM
Ki (5-HT1A receptor [2]): 88.2 nM
SMILES: CC(CCc1c[nH]c2c(F)cc(F)cc12)N(CC1CC1)C1COc2c(F)ccc(C(N)=O)c2C1 (single isomer, unassigned) [Compound 154b, 3-{(cyclopropylmethyl)[3-(5,7-difluoro-1H-indol-3-yl)-1-methylpropyl]amino}-8-fluorochromane-5-carboxamide]
